What was measured:
CYP46A1 = CYP46A1 (Homo sapiens, UniProt Q9Y6A2); experiment: CYP46A1 Enzyme Assay 2 (testosterone substrate, HPLC-MS); format: biochemical; conditions: read-out: IC50 (CYP46A1 inhibitory activity)
Procedure, shortened: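 CYP46A1 (5 μM final) with testosterone ([…] final) preincubated with compound 30 min at 37° C, reaction started with NADPH-generating system and run 15 min at 37° C. Quenched in methanol containing diclofenac internal standard; product read by HPLC-MS.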

[1] = Compound stability in cryopreserved human hepatocytes; format: in vitro ADME; conditions: pooled cryopreserved human hepatocytes, read-out: Human Hep Clint
Description: Pooled cryopreserved human hepatocytes from 10 donors were obtained from BioreclamationIVT (Cat No. X008001, Lot MMN). Test compounds (20 μL of 1 mM stock solution in DMSO) and control compounds 7-ethoxycoumarin and 7-hydroxycoumarin (20 μL of 3 mM stock solutions in DMSO) were diluted with 380 μL of 45% MeOH/H2O to obtain 50 μM solutions of test compound and 150 μM solutions of control compounds. Then 50 μL of these respective solutions were mixed with 450 μL of pre-warmed Williams' Medium E to obtain 5 μM test compound and 15 μM control compound solutions; and in duplicate 10 μL of these solutions were added to appropriate wells in a 96-well plate corresponding to incubation times T0, T15, T30, T60 and T90 and kept at 37° C. Cryopreserved human hepatocytes were thawed, isolated and suspended in Williams' Medium E, then diluted with pre-warmed William' Medium E to a concentration of 0.625×10^6 cells/mL. The reaction was started by aliquoting 40 μL of the hepatocytes into the 96-well plates containing 10 μL of the test and control compounds and incubated at 37° C. with 5% CO2. Stop solution (acetonitrile containing 200 ng/mL tolbutamide and labetalol as internal standards) was added at the requisite time (15, 30, 60, or 90 minutes). Hepatocytes were not added to the T0 samples, which were rather directly treated with stop solution. Medium control (MC) sample plates (T0-MC and T90-MC) were incubated in identical fashion as for the test samples, but without addition of hepatocytes and stop solution was added at the requisite times. The plates were vortexed immediately after addition of stop solution and placed on a plate shaker at 500 rpm for 10 min, then centrifuged at 3220×g for 20 min. The supernatants were transferred to 96-deep-well plates, sealed and stored at 4° C. until LC-MS-MS analysis. The concentration of compound remaining was determined by LC-MS-MS and plotted versus time. […]
Cutoff values determined by the hepatocyte stability assay are in Table 2 below: […]

P-gp (MDR1) = experiment: Compound permeability and efflux across a MDCK-MDR1 cellular membrane; format: in vitro ADME, canine; conditions: dog, pH 7.4, MDCK-MDR1 cell monolayer; for Papp A→B at 2.5 h, 2 µM: A to B; for efflux ratio at 2.5 h, 2 μM: read-out: MDCK Effux Ratio (B:A/A:B)
Description: MDR1-MDCKII cells (obtained from Piet Borst at the Netherlands Cancer Institute) were seeded onto […] (PET) in 96-well BD insert systems at 2.5×10^5 cells/mL and grown for 4-7 days until confluent cell monolayer formation.
Transport buffer for test compound was HBSS with 10 mM Hepes (pH 7.4±0.05) with or without 1% BSA and with or without GF120918. Transport buffer for reference compound was HBSS with 10 mM Hepes (pH 7.4±0.05) with or without GF120918. Test and reference compounds (digoxin, nadolol and metoprolol) were diluted with transport buffer from stock solution to a concentration of 2 μM (DMSO<1%) and applied to the apical or basolateral side of the cell monolayer. Permeation of the test compounds from A to B direction or B to A direction was determined in triplicate with and without P-gp inhibitor (GF120918, 10 μM). Digoxin was tested at 10 μM in the presence or absence of 10 μM GF120918 bi-directionally as well, while nadolol and metoprolol were tested at 2 μM in the absence of GF120918 in A to B direction in duplicate. The plate was incubated for 2.5 h in a CO2 incubator at 37±1° C., with 5% CO2 at saturated humidity without shaking. Test and reference compounds were quantified by LC/MS/MS analysis based on the peak area ratio of analyte/IS.
Six wells per 96-well plate were selected for the lucifer yellow rejection assay to determine the cell monolayer integrity. Thus, 75 μL of 100 μM lucifer yellow in transport buffer and 250 μL transport buffer were added to apical and basolateral chambers, respectively. The plate was incubated for 150 min at 37° C. with 5% CO2 and 95% relative humidity without shaking. After 150 minutes incubation, 20 μL of lucifer yellow samples were taken from the apical sides, followed by the addition of 60 μL of Transport Buffer, and then 80 μL of lucifer yellow samples were taken from the basolateral sides. The relative fluorescence unit (RFU) of lucifer yellow was measured at 425/528 nm (excitation/emission) with a Envision plate reader.
The apparent permeability coefficient Papp (cm/s) was calculated using the equation: […]
wherein dCr/dt is the cumulative concentration of compound in the receiver chamber as a function of time (μM/s); Vr is the solution volume in the receiver chamber (0.075 mL on the apical side, 0.25 mL on the basolateral side); A is the surface area for the transport, i.e. 0.0804 cm^2 for the area of the monolayer; C0 is the initial concentration in the donor chamber (μM).
The efflux ratio was calculated using the equation:
Efflux Ratio=Papp(BA)/Papp(AB)

Mouse pharmacokinetics = format: in vivo; conditions: 30 mg/kg PO
Description: Compound A6 was evaluated in a mouse pharmacokinetics (PK) study. The compound was dosed at 30 mg/kg PO to 3 male CD-1 mice, formulated as a solution in 30% hydroxypropyl beta-cyclodextran, with a dosing volume of 5 ml/kg. Plasma samples were collected at 0.25, 0.50, 1.0, 2.0, 4.0, 8.0 and 24 h post-dose. In 2 separate groups with 3 mice/group, Compound A6 was dosed at 30 mg/kg, PO and plasma and brain samples were collected at 0.5 and 2.0 h post-dose. […] The brain to plasma ratio at 0.25 and 2.0 h was 0.39 and 0.41, respectively.

CYP46A1, sequence (Q9Y6A2 whole entry): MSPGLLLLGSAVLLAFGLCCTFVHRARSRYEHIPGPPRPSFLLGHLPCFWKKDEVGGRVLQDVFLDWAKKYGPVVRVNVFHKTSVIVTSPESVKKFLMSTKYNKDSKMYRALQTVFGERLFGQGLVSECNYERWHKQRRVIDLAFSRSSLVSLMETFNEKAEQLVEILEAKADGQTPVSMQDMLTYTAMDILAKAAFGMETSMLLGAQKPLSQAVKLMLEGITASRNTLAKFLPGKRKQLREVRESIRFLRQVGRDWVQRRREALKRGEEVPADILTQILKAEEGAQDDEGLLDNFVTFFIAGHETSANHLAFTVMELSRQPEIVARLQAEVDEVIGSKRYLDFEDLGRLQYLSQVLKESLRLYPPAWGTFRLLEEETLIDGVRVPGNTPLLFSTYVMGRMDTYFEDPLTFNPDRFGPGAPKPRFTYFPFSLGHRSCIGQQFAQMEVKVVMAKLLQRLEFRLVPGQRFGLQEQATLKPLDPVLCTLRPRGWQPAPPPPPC

SMILES	IC50 (CYP46A1)	also measured
N#CC1(Cc2ccc(F)cc2)CCN(C(=O)c2cccnc2-c2ccncc2)CC1 [Compound A14, 1-([2,4′-bipyridine]-3-carbonyl)-4-(4-fluorobenzyl)piperidine-4-carbonitrile]	< 100 nM	CLint scaled at 1 µM [1]: < 18 mL/min/kg; Papp A→B at 2.5 h, 2 µM (P-gp (MDR1)): 21 ×10⁻⁶ cm/s; efflux ratio at 2.5 h, 2 μM (P-gp (MDR1)): 1.2
N#CC1(Cc2ccc(F)cc2)CCN(C(=O)c2cccnc2-c2ccncn2)CC1 [Compound A6, 4-(4-fluorobenzyl)-1-(2-(pyrimidin-4-yl)nicotinoyl)piperidine-4-carbonitrile]	< 100 nM	CLint scaled at 1 µM [1]: < 18 mL/min/kg; Papp A→B at 2.5 h, 2 µM (P-gp (MDR1)): 22 ×10⁻⁶ cm/s; efflux ratio at 2.5 h, 2 μM (P-gp (MDR1)): 1.4; Kp at 0.25 h (Mouse pharmacokinetics; CD-1, mouse, brain and plasma, mice, at 0.25 h, read-out: brain to plasma ratio): 0.39; Kp at 2 h (Mouse pharmacokinetics; CD-1, mouse, brain and plasma, mice, at 2.0 h, read-out: brain to plasma ratio): 0.41; AUC (Mouse pharmacokinetics; mouse, male CD-1 mice, plasma): 14400 ng·h/mL; Cmax (Mouse pharmacokinetics; mouse, male CD-1 mice, plasma): 10700 ng/mL; half-life (Mouse pharmacokinetics; mouse, male CD-1 mice, plasma): 57.6 min
C[C@@H]1CN(C(=O)c2cccnc2-c2ccncn2)CC[C@@]1(C#N)Cc1ccc(F)cc1 [Compound A247, (3S,4S)-4-(4-fluorobenzyl)-3-methyl-1-(2-(pyrimidin-4-yl)nicotinoyl)piperidine-4-carbonitrile]	< 100 nM	–
CC(C)(O)c1ccc(CC2(C#N)CCN(C(=O)c3cccnc3-c3ccncn3)CC2)cc1 [Compound A223, 4-(4-(2-hydroxypropan-2-yl)benzyl)-1-(2-(pyrimidin-4-yl)nicotinoyl)piperidine-4-carbonitrile]	100 to 1000 nM	–
CC[C@H](c1ccc(F)cc1)C1(C#N)CCN(C(=O)c2cccnc2-c2ccncn2)CC1 [Compound A215, (R)-4-(1-(4-fluorophenyl)propyl)-1-(2-(pyrimidin-4-yl)nicotinoyl)piperidine-4-carbonitrile]	< 100 nM	–
N#CC1(CC2CCOCC2)CCN(C(=O)c2cccnc2-c2ccncn2)CC1 [Compound A48, 1-(2-(pyrimidin-4-yl)nicotinoyl)-4-((tetrahydro-2H-pyran-4-yl)methyl)piperidine-4-carbonitrile]	100 to 1000 nM	–
N#CC1(Cc2ccc(F)c(C(F)(F)F)c2)CCN(C(=O)c2cccnc2-c2ccncn2)CC1 [Compound A267, 4-(4-fluoro-3-(trifluoromethyl)benzyl)-1-(2-(pyrimidin-4-yl)nicotinoyl)piperidine-4-carbonitrile]	< 100 nM	–
N#CC1(Cc2ccc(F)cc2C(F)(F)F)CCN(C(=O)c2cccnc2-c2ccncc2)CC1 [Compound A277, 1-([2,4′-bipyridine]-3-carbonyl)-4-(4-fluoro-2-(trifluoromethyl)benzyl)piperidine-4-carbonitrile]	< 100 nM	–
COc1ccc(CC2(C#N)CCN(C(=O)c3cccnc3-c3ccncn3)CC2)cn1 [Compound A202, 4-((6-methoxypyridin-3-yl)methyl)-1-(2-(pyrimidin-4-yl)nicotinoyl)piperidine-4-carbonitrile]	< 100 nM	–
N#C[C@@]1(Cc2ccc(F)cc2)C[C@H]2CC[C@@H](C1)N2C(=O)c1cccnc1-c1ccncn1 [Compound A252, (1R,3r,5S)-3-(4-fluorobenzyl)-8-(2-(pyrimidin-4-yl)nicotinoyl)-8-azabicyclo[3.2.1]octane-3-carbonitrile]	100 to 1000 nM	–
C[C@@H](c1ccc(C(F)(F)F)cc1)C1(C#N)CCN(C(=O)c2cccnc2-c2ccncn2)CC1 [Compound A250, (S)-1-(2-(pyrimidin-4-yl)nicotinoyl)-4-(1-(4-(trifluoromethyl)phenyl)ethyl)piperidine-4-carbonitrile]	< 100 nM	–
C[C@@H](c1c(F)cccc1F)C1(C#N)CCN(C(=O)c2cccnc2-c2ccncn2)CC1 [Compound A244, (R)-4-(1-(2,6-difluorophenyl)ethyl)-1-(2-(pyrimidin-4-yl)nicotinoyl)piperidine-4-carbonitrile]	< 100 nM	–
N#CC1(Cc2ccccc2)CCN(C(=O)c2cccnc2-c2ccncc2)CC1 [Compound A32, 1-([2,4′-bipyridine]-3-carbonyl)-4-benzylpiperidine-4-carbonitrile]	< 100 nM	CLint scaled at 1 µM [1]: < 18 mL/min/kg; Papp A→B at 2.5 h, 2 µM (P-gp (MDR1)): 28 ×10⁻⁶ cm/s; efflux ratio at 2.5 h, 2 μM (P-gp (MDR1)): 1.2
N#CC1(Cc2cc(C(F)(F)F)ccc2F)CCN(C(=O)c2cccnc2-c2ccncc2)CC1 [Compound A283, 1-([2,4′-bipyridine]-3-carbonyl)-4-(2-fluoro-5-(trifluoromethyl)benzyl)piperidine-4-carbonitrile]	< 100 nM	–

Reference: patent US20220332699A1 (SAGE THERAPEUTICS, INC., priority 2019, published 2022)
